# Columns and labels:
# [1] = molecular target: T1, BuChE (Homo sapiens, UniProt P06276); assay: Sensitivity of BuChE to cholinesterase inhibitors (background); format: biochemical; settings: ratio of Ki BuChE to Ki AChE
# [2] = molecular target: T1, BuChE; settings: in words; cited from earlier work
# T1 sequence (P06276 29-602): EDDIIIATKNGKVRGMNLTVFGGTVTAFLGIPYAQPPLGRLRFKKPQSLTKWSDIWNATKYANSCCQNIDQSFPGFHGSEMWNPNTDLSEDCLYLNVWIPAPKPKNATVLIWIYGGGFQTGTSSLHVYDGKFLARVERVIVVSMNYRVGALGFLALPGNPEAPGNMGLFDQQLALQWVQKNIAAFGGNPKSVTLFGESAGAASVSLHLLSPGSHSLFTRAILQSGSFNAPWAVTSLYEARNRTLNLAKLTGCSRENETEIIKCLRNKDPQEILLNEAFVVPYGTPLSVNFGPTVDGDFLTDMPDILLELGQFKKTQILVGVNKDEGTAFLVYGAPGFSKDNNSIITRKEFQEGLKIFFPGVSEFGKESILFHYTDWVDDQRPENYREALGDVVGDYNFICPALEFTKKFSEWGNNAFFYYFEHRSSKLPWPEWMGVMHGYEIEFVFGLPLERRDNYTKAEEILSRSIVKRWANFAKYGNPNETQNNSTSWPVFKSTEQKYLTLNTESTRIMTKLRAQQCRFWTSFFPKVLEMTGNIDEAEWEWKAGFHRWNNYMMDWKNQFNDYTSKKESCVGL
Structure (SMILES),difference in sensitivity of BuChE compared to AChE [1],sensitivity of BuChE to the inhibitor compared with AChE [2]
"C=CC[N+](C)(C)c1ccc(CCC(=O)CCc2ccc([N+](C)(C)CC=C)cc2)cc1 [BW284c51, 1,5-bis(4-allyldimethylammoniumphenyl)pentan-3-one dibromide]",1400 fold,
"CC(C)NP(=O)(NC(C)C)OP(=O)(NC(C)C)NC(C)C [Iso-OMPA, tetraisopropyl pyrophosphoramide]",,much more sensitive

# Reference: US9062321B2 (priority 2004, dated 2015)
